Here are results for 5 compounds from patent US20070259354A1, “OPTIMIZED TRPM8 NUCLEIC ACID SEQUENCES AND THEIR USE IN CELL BASED ASSAYS AND TEST KITS TO IDENTIFY TRPM8 MODULATORS” (Senomyx, Inc., priority 2005, published 2007).

The target in experiment [1] is T1, rat TRPM8 (Rattus norvegicus, UniProt Q8R455).
T1 construct: In the assays exemplified herein, cells which express the full-length TRPM8 polypeptide are used in high throughput assays; expressed in transfected cells; host or cells: Xenopus oocytes microinjected with rat TRPM8 cRNA
T1 sequence (Q8R455 whole entry): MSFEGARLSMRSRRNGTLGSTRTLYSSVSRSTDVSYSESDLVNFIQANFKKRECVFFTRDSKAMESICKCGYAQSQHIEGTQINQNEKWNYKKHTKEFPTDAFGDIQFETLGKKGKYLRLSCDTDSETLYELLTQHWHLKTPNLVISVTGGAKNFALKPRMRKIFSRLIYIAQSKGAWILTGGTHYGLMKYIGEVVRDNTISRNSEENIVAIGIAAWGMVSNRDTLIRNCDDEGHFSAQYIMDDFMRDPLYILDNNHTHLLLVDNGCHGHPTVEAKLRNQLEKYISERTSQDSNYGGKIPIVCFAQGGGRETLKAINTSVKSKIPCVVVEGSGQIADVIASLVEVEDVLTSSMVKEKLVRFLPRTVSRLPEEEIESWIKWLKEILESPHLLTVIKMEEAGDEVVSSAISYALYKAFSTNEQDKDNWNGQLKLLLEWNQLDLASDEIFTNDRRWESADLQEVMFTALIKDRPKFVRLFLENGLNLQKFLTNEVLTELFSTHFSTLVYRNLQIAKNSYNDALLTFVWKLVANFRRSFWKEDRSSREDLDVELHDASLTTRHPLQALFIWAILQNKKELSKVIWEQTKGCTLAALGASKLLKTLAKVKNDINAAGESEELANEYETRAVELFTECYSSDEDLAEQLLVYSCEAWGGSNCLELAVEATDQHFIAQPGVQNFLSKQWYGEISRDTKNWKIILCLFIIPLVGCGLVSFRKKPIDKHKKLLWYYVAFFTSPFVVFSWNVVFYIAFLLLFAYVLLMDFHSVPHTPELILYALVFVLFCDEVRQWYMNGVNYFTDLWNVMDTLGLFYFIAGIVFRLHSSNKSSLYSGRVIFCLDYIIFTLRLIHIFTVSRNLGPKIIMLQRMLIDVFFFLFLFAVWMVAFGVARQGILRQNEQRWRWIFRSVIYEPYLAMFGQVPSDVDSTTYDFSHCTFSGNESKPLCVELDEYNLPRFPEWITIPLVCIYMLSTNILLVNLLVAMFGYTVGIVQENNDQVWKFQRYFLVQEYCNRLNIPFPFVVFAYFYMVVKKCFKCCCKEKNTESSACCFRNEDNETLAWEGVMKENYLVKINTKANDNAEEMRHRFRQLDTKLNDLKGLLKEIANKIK
Nature of the experiment: Fluorimetric calcium imaging (FLIPR), HEK293 cells transiently transfected with rat TRPM8. Type of experiment: cell-based. As to conditions: chilled stimulus compared with warmer stimulus. On the procedure:
HEK-293 cells (about 50-70% confluency) contained in 10 cm dishes are transfected with 5 μg of TRPM8 DNA and pcDNA3 and 2 μg of RFP plasmids using TransH293.
After 24 hours, the cells are split into 384-well plates at ˜50,000 cells/well.
At 48 hours post-transfection the cells are loaded with 4 μM Fluo-3-AM 3 AM in HBSS for 30 minutes at 37° C.
The cells are then washed twice within HBSS containing 2.5 mM Probenicid and returned to 37° C. for 15 minutes.
Compound plates are prepared in HBSS at twice the final concentration and kept at 37° C. to insure that rTRPM8 is not activated by a decrease in ambient temperature during stimulation (TRPM8 is activated by temperatures<22° C.).
HEK293 cells are transfected with a plasmid encoding the rat TRPM8 cDNA (in pcDNA3.1) and are seeded into 384-well plates. 48 hours later, cells are loaded with Fluo-3-AM. Cells are then stimulated with various stimuli as shown in FIG. 2 and fluorescence intensity in each well measured using a Fluorimetric Imaging Plate Reader (FLIPR). […]
HEK293 cells transfected with a plasmid encoding rat TRPM8 cDNA contained in pcDNA3.1 were seeded into 384-well plates. […] Cells were then stimulated with the stimuli shown in FIG. 3 and fluorescence intensity in each well measured using a Fluorimetric Imaging Plate Reader (FLIPR). […]

Experiment [2] concerns the target T1, rat TRPM8. Nature of the experiment: Voltage clamp electrophysiology in Xenopus oocytes expressing rat TRPM8 (OpusXpress). The conditions noted are these: for peak agonist-induced currents: 4-6 independent oocytes; for peak agonist-induced currents / desensitization of agonist-induced currents: one day post-injection; for desensitization of agonist-induced currents: continued presence of agonist; for specific activation of rat TRPM8 expressed in oocytes: no responses in uninjected control oocytes. Type of experiment: cell-based. How it is done:
Xenopus oocytes are microinjected with a TRPM8 nucleic acid sequence according to the invention.
The microinjected oocytes are voltage-clamped at around 60 mV using the OpusXpress 600A one day post-injection and treated with either buffer (control) or a potential or known TRPM8 modulator contained in same buffer at a fixed concentration or over a range of different concentrations (dose-escalation).
The current is measured for said buffer-treated or putative TRPM8 modulator-treated oocytes over a specific time period. Additionally, the current response is measured for oocytes treated with the same buffer which are not injected with a TRPM8 nucleic acid sequence (negative control).
The current response for said oocytes is compared in order to determine the effect (if any) of said potential TRPM8 modulator compound on TRPM8 activity and whether said effect is dose-specific.
In this experiment an electrophysiological assay was conducted using oocytes that express rat TRPM8. Specifically, oocytes were microinjected with 10 ng rat TRPM8 cRNA and were voltage-clamped at ˜60 mV using the OpusXpress 600A one day post-injection and treated with buffer and menthol (left traces) or icilin (right traces).
Oocytes were microinjected with 10 ng rat TRPM8 […] and voltage-clamped at ˜60 mV using the OpusXpress 6000A one day post-injection and then treated with the compounds shown in the FIG. 6. In the Figure, peak agonist-induced currents are summarized for 4-6 independent oocytes.
In these experiments, oocytes were again injected with 2 ng rat TRPM8 cRNA (as shown in left panel of FIG. 7) or uninjected (right panel) and currents were measured from ˜80 mV to 100 mV (in 20 mV increments) in the presence of buffer (control; green curves) or 100 μM menthol (red curves) four days post-injection. The blue curves in FIG. 7 depict menthol-specific currents obtained by subtracting control (green) from menthol (red) curves.
In this experiment, oocytes were again microinjected with 10 ng rat TRPM8 cRNA, voltage-clamped at ˜60 mV and currents measured 2-3 days post-injection.

Experiment [3] is described as follows: Human taste test, cooling intensity. In kind it is in vivo. The conditions noted are these: five human panelists, two trials, Tukey's HSD 5% risk level. How it is done:
In this experiment the cooling effect of a putative coolant, SID 391254, identified using the subject assays was analyzed in human taste tests. Particularly, the cooling intensity for three test samples was tested in five human volunteer panelists in two trials. […] The tests were conducted in booths with the data recorded using Compusense software. Additionally, these experiments further included the administration of WS-3, a known coolant (positive control).
For both samples containing the known or the putative cooling compound (WS-3 and SID 391254 respectively), these compounds were contained in low sodium buffer (LSB) and 0.1% ethanol.
This experiment compared the cooling effect of another putative coolant compound (SID 10135651) identified using the described assays. […] As with the prior example, significant differences between the known and putative coolant compound vis-à-vis the control were calculated using Tukey's HSD (5% risk level). […] These tests were again conducted in booths with the data recorded using Compusense software.
The coolant effect of another putative cooling compound (SID 7292725) identified using the subject screening assays was tested in human taste tests. Again cooling intensity scores were determined based on results in 5 human taste panelists in two trials. Significant differences were again calculated using Tukey's HSD (5% risk level).

In experiment [4] the target is T1, rat TRPM8. As to conditions: 22-24° C., McKemy et al. Nature 416:52-58 (2002); read-out: reported EC50 in oocytes; cited from earlier work.

The structures appear in SMILES notation. pEC50: −log10 of the molar value. Like-named read-outs stand apart in the source and are kept apart here.

Consider `O=C1NC(c2cccc([N+](=O)[O-])c2)=CCN1c1ccccc1O` [icilin], for which the “potency of chilled versus warmer agent at activating TRPM8” value at rat TRPM8 [1] was “more potent”. In addition, at rat TRPM8 [2], the peak agonist-induced currents entry is listed as “large peak currents”, the “desensitization of agonist-induced currents” value is “completely desensitize” and the “specific activation of rat TRPM8 expressed in oocytes” value is “specifically activate”.
As for `CCNC(=O)C1CC(C)CCC1C(C)C` (centres unmarked) [WS-3], the “cooling intensity compared with negative control (LSB and 0.1% ethanol)” value in experiment [3] was “substantially higher cooling intensity”.
For the compound `C` [methane], at rat TRPM8 [2], the peak agonist-induced currents entry is “small peak currents”.
For orientation: pEC50 means −log10 of the EC50, conventionally taken in molar units. In the case of `CC1CCC(C(C)C)C(O)C1` (centres unmarked) [menthol], at rat TRPM8 [1], the “potency of chilled versus warmer agent at activating TRPM8” value was “more potent”. The “current/voltage (I/V) curve of menthol-specific currents” value at rat TRPM8 [2] (100 μM menthol, 2 ng cRNA, four days post-injection) was “outward rectification”. Further, on rat TRPM8 [2], the peak agonist-induced currents entry was “large peak currents”, the “desensitization of agonist-induced currents” value is “partially-desensitize” and the “specific activation of rat TRPM8 expressed in oocytes” value was “specifically activate”. Moreover, the pEC50 on rat TRPM8 [2] (oocytes, 10 ng rat TRPM8 cRNA, 19.5° C.) was 4.53. For the same compound, at rat TRPM8 [4], the pEC50 was 4.17.
As to `CC12CCC(CC1)C(C)(C)O2` [eucalyptol], on rat TRPM8 [2], the peak agonist-induced currents entry is on record as “small peak currents”.
